The IC50 is the point on the concentration scale where inhibition reaches its midpoint. As usually defined, the Cmax is the peak of the concentration-time curve. As usually defined, the MRT is the average time that molecules of a dose stay in the body. For orientation: bioavailability means dose-corrected exposure relative to a reference, in per cent. The low end stands for poor availability, the high end for good availability. One may read the clearance as a measure of how efficiently the substance is removed, as volume per time.

From US20250136568A1, “FUSED HETEROCYCLIC COMPOUNDS AS PI3KALPHA INHIBITORS” (Nanjing Zenshine Pharmaceuticals Co., Ltd., priority 2021, published 2025) come the findings set out here.

Data set [1] deals with PI3Kα H1047R mutation cell line T-47D. As to the kind of experiment: Cell Proliferation IC50 Assay (CellTiter-Glo), T-47D. The format is cell-based. Conditions: T47D (H1047R), 72 hours, CellTiter-Glo, read-out: IC50 (μM) T47D. Summed up:
(§1)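 Cells were seeded and left overnight, then exposed to serially diluted compound (200-fold final dilution) for 72 h at 37 °C, 5% CO2. Viability was read by CellTiter-Glo luminescence. Percent inhibition and IC50 were calculated from the signal.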

For another data set, the target named is T1, PI3Kβ (Homo sapiens, UniProt P42338).
T1 construct: endogenous in cells; host or cells: 786-O
As to the kind of experiment: Selectivity study, p-AKT (Ser473) HTRF assay in 786-O cells. Particulars: 786-O cell, 1 hour incubation, serum-free medium. It is filed as cell-based. As for the experimental part:
The following day, the complete medium was replaced with serum-free medium, 3-fold serial diluted compound solution in serum-free medium was added to each well according to the plate map. After 1 hour incubation, removed cell supernatant carefully and added supplemented lysis buffer (1×) for 45 min. The lysate was transferred to a 384-well small volume white plate, the CisBio Phospho-AKT (Ser473) HTRF assay was performed as the manufacturer's directions (Cisbio, #64AKSPEG).
For orientation: TR-FRET usually uses a lanthanide donor and a delayed reading to cut background.

Data set [2] has as its system PI3Kα wide type cell line SK-BR-3. As to the kind of experiment: Cell Proliferation IC50 Assay (CellTiter-Glo), SK-BR-3. The format is cell-based. Conditions: SK-BR-3 (PI3Kα wild type), 72 hours, CellTiter-Glo, read-out: IC50 (μM) SK-BR-3. Summed up:
as §1

In a further data set the target is PI3Kα H1047R mutant (Homo sapiens, UniProt P42336, H1047R). The data set is described as follows: pAKT (S473) ELISA assay in PI3Kα H1047R mutant cell line (T47D). It is filed as cell-based. Conditions: T47D cells, two hours compound, IGF-1 50 ng/ml stimulation. On the procedure:
(§2) Cells were serum starved for 4 hours prior to compound treatment; compound solution was added to each well (3-fold serial dilution starting at desired concentration) for two hours in serum-free medium, followed by stimulation with IGF-1 for 60 minutes at a final concentration of 50 ng/ml as noted. After compound treatment and stimulation, discarded the supernatant and cells were lysed by cell lysis buffer (Cell Signaling Technology, #9803S). The lysate was transferred to the ELISA plate, the Phospho-AKT (Ser473) ELISA was performed as the manufacturer's directions (Cell Signaling Technology, #7160CA).
A general note: An ELISA detects its analyte on a solid surface through an enzyme-linked reagent.

A further data set has as its target PI3Kα WT (Homo sapiens, UniProt P42336). As to the kind of experiment: pAKT (S473) ELISA assay in WT cell line (SK-BR-3). It is filed as cell-based. Conditions: SK-BR-3 cells, two hours compound, IGF-1 50 ng/ml stimulation. As for the experimental part: as §2
Data set [3] deals with PI3Kα H1047R mutation cell line MDA-MB-453. As to the kind of experiment: Cell Proliferation IC50 Assay (CellTiter-Glo), MDA-MB-453. It is filed as cell-based. Particulars: MDA-MB-453 (H1047R), 72 hours, CellTiter-Glo, read-out: IC50 (μM) MDA-MB-453. Summed up:
as §1

Data set [4] in a line: In vivo pharmacokinetics in mice. Particulars: for clearance / bioavailability: male, CD1, mouse, plasma; for clearance: intravenous, 1 mg/kg; for bioavailability: oral, 5 mg/kg.
Procedure: Dosing solutions were prepared at 0.5 mg/mL in 10% DMSO/10% HP—3-CD/80% water. A dosing solution was administered to Male CD1 mice (4-6 weeks, 20-30 g, 3 mice each group) via intravenous (TV) bolus at 1 mg/kg and by oral gavage (PO) at 5 mg/kg. The dose formulations were kept at room temperature and administrated within 30 mins for IV/PO. Blood samples (0.3 mL each time point) were collected into tubes containing ethylenediaminetetraacetic acid (K2EDTA) as the anticoagulant at 0, 0033, 0.083, 0.25, 05, 1, 2, 4, 8 and 24 hours post dose for IV administrated and 0, 0.083, 0.25, 0.5, 1, 2, 4, 8 and 24 hours post dose for PO administration. The blood sample were then centrifuged for 5 minutes in centrifuge refrigerated at 4° C. The samples were stored in a freezer at −75±15° C. prior to analysis. Concentrations of Compound in the plasma samples were analyzed using a LC-MS/MS method. WinNonlin (Phoenix™, version 8.3) or other similar software were used for pharmacokinetic calculations. The following pharmacokinetic parameters were calculated, whenever possible from the plasma concentration versus time data: MRT, Cmax, Tmax, AUClast, AUCinf, F %, Number of Points for Regression.
The next data set in a line: in vivo. Particulars: male, CD1, mouse.
Setting [5] is: CD1 mice, IV bolus at 1 mg/kg and PO at 5 mg/kg.

Like-named read-outs stand apart in the source and are kept apart here. A value given as a limit tells only on which side of the number the result lay.

Chain of PI3Kα WT (P42336 whole entry): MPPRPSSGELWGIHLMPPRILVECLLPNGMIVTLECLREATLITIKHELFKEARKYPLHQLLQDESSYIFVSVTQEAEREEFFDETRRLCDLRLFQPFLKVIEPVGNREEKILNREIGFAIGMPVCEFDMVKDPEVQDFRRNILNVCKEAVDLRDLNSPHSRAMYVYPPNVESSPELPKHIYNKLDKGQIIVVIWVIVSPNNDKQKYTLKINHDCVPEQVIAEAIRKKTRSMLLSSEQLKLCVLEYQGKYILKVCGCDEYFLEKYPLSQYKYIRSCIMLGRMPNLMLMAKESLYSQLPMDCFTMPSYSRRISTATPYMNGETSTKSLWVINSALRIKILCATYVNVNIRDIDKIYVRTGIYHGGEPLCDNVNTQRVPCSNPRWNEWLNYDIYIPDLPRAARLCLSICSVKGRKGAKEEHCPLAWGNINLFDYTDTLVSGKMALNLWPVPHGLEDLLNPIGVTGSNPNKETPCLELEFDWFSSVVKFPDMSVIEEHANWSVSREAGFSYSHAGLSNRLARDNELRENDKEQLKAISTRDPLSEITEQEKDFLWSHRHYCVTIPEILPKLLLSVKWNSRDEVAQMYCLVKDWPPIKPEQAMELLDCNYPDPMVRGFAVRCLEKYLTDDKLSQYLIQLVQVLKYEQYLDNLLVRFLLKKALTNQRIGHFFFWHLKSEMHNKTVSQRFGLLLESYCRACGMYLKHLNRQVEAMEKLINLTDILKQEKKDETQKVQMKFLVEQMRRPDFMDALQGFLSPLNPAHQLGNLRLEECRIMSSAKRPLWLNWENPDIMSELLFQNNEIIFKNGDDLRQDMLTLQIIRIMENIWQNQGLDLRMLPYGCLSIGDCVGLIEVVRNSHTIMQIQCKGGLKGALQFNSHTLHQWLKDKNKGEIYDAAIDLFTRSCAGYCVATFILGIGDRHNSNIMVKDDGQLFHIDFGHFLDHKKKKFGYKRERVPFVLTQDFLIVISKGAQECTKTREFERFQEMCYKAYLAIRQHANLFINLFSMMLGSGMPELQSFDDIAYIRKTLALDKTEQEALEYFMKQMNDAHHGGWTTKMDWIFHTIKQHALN
Chain of PI3Kα WT (P27986 whole entry partner): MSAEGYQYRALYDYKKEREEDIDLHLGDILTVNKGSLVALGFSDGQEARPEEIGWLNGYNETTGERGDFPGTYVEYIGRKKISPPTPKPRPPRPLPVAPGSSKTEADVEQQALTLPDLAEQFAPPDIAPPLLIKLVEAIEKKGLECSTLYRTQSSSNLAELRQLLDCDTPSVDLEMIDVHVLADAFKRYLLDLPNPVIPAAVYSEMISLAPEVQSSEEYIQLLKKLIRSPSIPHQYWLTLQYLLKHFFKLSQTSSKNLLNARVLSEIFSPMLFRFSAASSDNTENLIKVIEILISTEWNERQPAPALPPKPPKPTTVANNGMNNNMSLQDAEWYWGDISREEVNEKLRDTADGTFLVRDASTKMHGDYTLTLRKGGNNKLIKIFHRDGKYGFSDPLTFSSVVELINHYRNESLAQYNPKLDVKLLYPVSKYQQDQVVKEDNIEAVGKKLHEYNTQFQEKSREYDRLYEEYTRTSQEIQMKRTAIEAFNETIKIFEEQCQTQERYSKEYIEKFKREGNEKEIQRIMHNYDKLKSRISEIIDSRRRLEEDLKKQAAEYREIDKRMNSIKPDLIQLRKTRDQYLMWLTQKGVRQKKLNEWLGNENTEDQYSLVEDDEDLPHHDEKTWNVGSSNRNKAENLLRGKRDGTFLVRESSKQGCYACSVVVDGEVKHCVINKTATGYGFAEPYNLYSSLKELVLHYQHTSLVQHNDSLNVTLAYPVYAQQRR
Chain of PI3Kα H1047R mutant (P42336 whole entry H1047R): as the sequence (P42336 whole entry) above, with H1047R counted along it
Chain of PI3Kα H1047R mutant (P27986 whole entry partner): as the sequence (P27986 whole entry partner) above
T1 sequence (P42338 whole entry): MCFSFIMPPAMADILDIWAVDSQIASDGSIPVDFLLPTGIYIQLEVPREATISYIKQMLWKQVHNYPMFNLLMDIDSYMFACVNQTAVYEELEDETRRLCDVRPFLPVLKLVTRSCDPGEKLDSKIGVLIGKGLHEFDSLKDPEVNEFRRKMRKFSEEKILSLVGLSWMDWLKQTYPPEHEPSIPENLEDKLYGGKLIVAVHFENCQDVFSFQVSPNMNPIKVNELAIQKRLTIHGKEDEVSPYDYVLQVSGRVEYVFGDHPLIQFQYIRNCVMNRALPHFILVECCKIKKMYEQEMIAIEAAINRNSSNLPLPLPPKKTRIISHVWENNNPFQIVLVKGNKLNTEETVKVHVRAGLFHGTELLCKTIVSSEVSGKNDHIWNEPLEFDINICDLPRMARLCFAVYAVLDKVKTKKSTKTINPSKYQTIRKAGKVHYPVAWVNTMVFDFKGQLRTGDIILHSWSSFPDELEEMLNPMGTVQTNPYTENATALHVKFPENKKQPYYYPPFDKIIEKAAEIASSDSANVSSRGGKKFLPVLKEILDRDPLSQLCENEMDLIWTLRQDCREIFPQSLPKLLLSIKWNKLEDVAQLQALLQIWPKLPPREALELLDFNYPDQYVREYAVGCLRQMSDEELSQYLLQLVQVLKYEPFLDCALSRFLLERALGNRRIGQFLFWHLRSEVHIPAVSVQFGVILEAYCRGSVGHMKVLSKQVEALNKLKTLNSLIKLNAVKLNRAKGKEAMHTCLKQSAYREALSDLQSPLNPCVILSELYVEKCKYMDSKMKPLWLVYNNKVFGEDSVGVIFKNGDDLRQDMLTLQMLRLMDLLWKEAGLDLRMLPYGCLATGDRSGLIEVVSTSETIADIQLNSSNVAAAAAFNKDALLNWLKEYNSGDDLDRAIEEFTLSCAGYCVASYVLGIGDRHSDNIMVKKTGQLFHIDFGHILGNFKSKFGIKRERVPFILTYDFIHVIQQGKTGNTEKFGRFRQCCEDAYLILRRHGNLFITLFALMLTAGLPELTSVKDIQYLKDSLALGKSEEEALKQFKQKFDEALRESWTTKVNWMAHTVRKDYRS
T1 sequence (P27986 whole entry partner): as the sequence (P27986 whole entry partner) above

Turning to `Cc1cc(C(C)Nc2ccc(Cl)nc2C(=O)O)c2oc(-c3ccc4nn(C)cc4c3)cc(=O)c2c1` (centres unmarked) [Example 110, 6-chloro-3-((1-(6-methyl-2-(2-methyl-2-indazol-5-yl)-4-oxo-4H-chromen-8-yl)ethyl)amino)picolinic acid], the IC50 in data set [1] (Homo sapiens, T47D, 72 h) is 0.087 µM; against PI3Kβ, greater than 10 µM; in data set [2] (Homo sapiens), greater than 10 µM.

For the compound `Cc1cc([C@@H](C)Nc2ccccc2C(=O)O)c2oc(-c3ccc(CN4CCN(C)C(=O)C4)cc3)c(C)c(=O)c2c1` [Example 148, (R)-2-((1-(3,6-dimethyl-2-(4-((4-methyl-3-oxopiperazin-1-yl)methyl)phenyl)-4-oxo-4H-chromen-8-yl)ethyl)amino)benzoic acid], the IC50 in data set [1] (Homo sapiens, T47D, 72 h) is 0.066 µM; against PI3Kα H1047R mutant, 48.5 nM; against PI3Kβ it was greater than 10 µM; at PI3Kα WT, 4340 nM; in data set [2] (Homo sapiens) it was greater than 10 µM.

For the compound `CC(=O)N1CCN(c2ccc(-c3oc4c([C@@H](C)Nc5ccccc5C(=O)O)cc(C)cc4c(=O)c3C)cc2)CC1` (single isomer, unassigned) [Example 123A], the concentration for half-maximal inhibition (IC50) amounted to 0.076 µM in data set [1] (Homo sapiens, T47D, 72 h); 37 nM against PI3Kα H1047R mutant; 6.46 µM against PI3Kβ; 1100 nM against PI3Kα WT; 5.6 µM in data set [2] (Homo sapiens); 0.15 µM in data set [3] (Homo sapiens).

As to `Cc1cc(C(C)Nc2ccccc2C(=O)O)c2oc(-c3ccc(-c4cnn(C)c4)cc3)cc(=O)c2c1` (centres unmarked) [Example 95, 2-((1-(6-methyl-2-(4-(1-methyl-1H-pyrazol-4-yl)phenyl)-4-oxo-4H-chromen-8-yl)ethyl)amino)benzoic acid], the midpoint of inhibition against PI3Kβ, the IC50, lay at 1.22 µM.

Turning to “(R)-2-((1-(6-methyl-2-(41-methyl-1H-pyrazol-4-yl)phenyl)-4-oxo-4H-chromen-8-yl)ethyl)amino)benzoic acid [Example 95A]”, the IC50 in data set [1] was 0.09 µM; against PI3Kα H1047R mutant, 12 nM; on PI3Kα WT, 1260 nM; in data set [2], greater than 10 µM. The “Cmax” value in data set [4] (setting [5]) came out at 102 ng/mL. The “MRT” value in data set [4] (setting [5]) is reported as 7.64 h.

On to `Cc1cc([C@@H](C)Nc2ccccc2C(=O)O)c2oc(-c3ccc(OCCN(C)C)cc3)c(C)c(=O)c2c1` [Example 140, (R)-2-((1-(2-(4-(2-(dimethylamino)ethoxy)phenyl)-3,6-dimethyl-4-oxo-41-chromen-8-yl)ethyl)amino)benzoic acid], for which the IC50 in data set [1] (Homo sapiens, T47D, 72 h) was 0.041 µM; on PI3Kα H1047R mutant it was 42.3 nM; on PI3Kβ, greater than 10 µM; on PI3Kα WT it was 2390 nM; in data set [2] (Homo sapiens) it was greater than 10 µM; in data set [3] (Homo sapiens), 0.029 µM.

With `C[C@@H](Nc1ccccc1C(=O)O)c1cc(Cl)cc2c(=O)cc(-c3ccc4nn(C)cc4c3)oc12` (single isomer, unassigned) [Example 98B], the IC50 in data set [1] was greater than 10 µM; against PI3Kα H1047R mutant, 19.5 nM; on PI3Kα WT it was 1340 nM; in data set [2] it was greater than 10 µM; in data set [3], greater than 10 µM.

`CC(Nc1ccccc1C(=O)O)c1cc(Cl)cc2c(=O)cc(-c3ccc4nn(C)cc4c3)oc12` (centres unmarked) [Example 98, 2-((1-(6-chloro-2-(2-methyl-2H-indazol-5-yl)-4-oxo-4H-chromen-8-yl)ethyl)amino)benzoic] registered an IC50 at PI3Kβ of 1.15 µM.

As to `Cc1cc([C@@H](C)Nc2ccccc2C(=O)O)c2oc(-c3ccc(CN4CCN(C)CC4)cc3)c(C)c(=O)c2c1` [Example 147, 2-[[(1R)-1-[3,6-dimethyl-2-[4-[(4-methylpiperazin-1-yl)methyl]phenyl]-4-oxo-chromen-8-yl]ethyl]amino]benzoic acid], the IC50 was 0.055 µM in data set [1] (Homo sapiens); 46.5 nM on PI3Kα H1047R mutant; greater than 10 µM at PI3Kβ; 6130 nM on PI3Kα WT; greater than 10 µM in data set [2] (Homo sapiens). The compound further had a bioavailability in “in vivo” of 46.5%. In “in vivo”, this compound showed a clearance of 10.9 mL/min/kg.

For `Cc1cc([C@@H](C)Nc2ccccc2C(=O)O)c2oc(-c3ccc(-c4cnn(C)c4)nc3)c(C)c(=O)c2c1` [Example 150, (R)-2-((1-(3,6-dimethyl-2-(6-(1-methyl-H-pyrazol-4-yl)pyridin-3-yl)-4-oxo-41-chromen-8-yl)ethyl)amino)benzoic acid], the IC50 in data set [1] (Homo sapiens, T47D, 72 h) is 0.064 µM; against PI3Kα H1047R mutant it was 25 nM; against PI3Kβ, greater than 10 µM; against PI3Kα WT it was 2370 nM; in data set [2] (Homo sapiens) it was greater than 10 µM; in data set [3] (Homo sapiens), 0.13 µM. In data set [4], the clearance was determined as 3.75 mL/min/kg. In data set [4], this compound showed a bioavailability of 58.2%.

As to `Cc1cc([C@@H](C)Nc2ccccc2C(=O)O)c2oc(-c3ccc4nn(C)cc4c3)cc(=O)c2c1` (single isomer, unassigned) [Example 38B], the half-maximal inhibitory concentration (IC50) in data set [1] (Homo sapiens, T47D, 72 h) turned out to be 0.04 µM; against PI3Kα H1047R mutant, 25 nM; on PI3Kβ it was 0.545 µM; against PI3Kα WT, 1290 nM; in data set [2] (Homo sapiens), 8.5 µM; in data set [3] (Homo sapiens), 0.05 µM. This compound showed a clearance in data set [4] of 34 mL/min/kg. For the same compound, the bioavailability in data set [4] was 45.5%.

Take `Cc1cc([C@@H](C)Nc2ccccc2C(=O)O)c2oc(-c3ccc(N4CCOCC4)cc3)c(C)c(=O)c2c1` (single isomer, unassigned) [Example 53A]: the half-maximal inhibitory concentration (IC50) in data set [1] (Homo sapiens, T47D, 72 h) was 0.09 µM; in data set [2] (Homo sapiens) it was greater than 10 µM; in data set [3] (Homo sapiens), 0.12 µM.

As for `Cc1cc([C@H](C)Nc2ccccc2C(=O)O)c2oc(-c3ccc4c(c3)CN(C)C4=O)c(C)c(=O)c2c1` (single isomer, unassigned) [Example 20A], the IC50 is greater than 10 µM in data set [1] (Homo sapiens, T47D, 72 h); greater than 10 µM in data set [2] (Homo sapiens); greater than 10 µM in data set [3] (Homo sapiens).
